# Measurements: ChEMBL document CHEMBL1155989, “Discovery of novel diarylketoxime derivatives as selective and orally active melanin-concentrating hormone 1 receptor antagonists” (Bioorg Med Chem Lett, 2009)
# Columns and labels:
# [1] = Metabolic stability in human liver microsomes assessed as compound remaining after 30 mins; format: ADME, Microsome; settings: read-out: Stability
# [2] = Metabolic stability in rat liver microsomes assessed as compound remaining after 30 mins; format: ADME, Microsome; settings: read-out: Stability
# [3] = Metabolic stability in mouse liver microsomes assessed as compound remaining after 30 mins; format: ADME, Microsome; settings: read-out: Stability
# [4] = Plasma clearance in Sprague-Dawley rat at 1 mg/kg, iv; format: ADME, organism-based; design: dose 1 mg/kg, route intravenous
# [5] = Volume of distribution at steady state in Sprague-Dawley rat at 1 mg/kg, iv; format: ADME, organism-based; design: dose 1 mg/kg, route intravenous; settings: in vivo, read-out: Vdss
# [6] = Half life in Sprague-Dawley rat at 1 mg/kg, iv; format: ADME, organism-based; design: dose 1 mg/kg, route intravenous; settings: in vivo
# [7] = Cmax in Sprague-Dawley rat at 3 mg/kg, po; format: ADME, organism-based; design: dose 3 mg/kg, route oral; settings: in vivo
# Rattus norvegicus = assay: AUC (0 to infinity) in Sprague-Dawley rat at 3 mg/kg, po; format: ADME, organism-based, Plasma; design: time infinity, dose 3 mg/kg, route oral; settings: in vivo
# [8] = Oral bioavailability in Sprague-Dawley rat; format: ADME, organism-based; settings: in vivo
# [9] = Plasma concentration in Sprague-Dawley rat at 10 mg/kg, po after 2 hrs; format: ADME, organism-based; design: dose 10 mg/kg, route oral
# Brain [10] = assay: Drug level in Sprague-Dawley rat brain at 10 mg/kg, po after 2 hrs; format: ADME, organism-based; design: dose 10 mg/kg, route oral; settings: in vivo
# [11] = Drug level in Sprague-Dawley rat cerebrospinal fluid at 10 mg/kg, po after 2 hrs; format: ADME, organism-based; design: dose 10 mg/kg, route oral; settings: read-out: Drug uptake
# [12] = Ratio of drug level in brain to plasma of Sprague-Dawley rat at 10 mg/kg, po after 2 hrs; format: ADME, organism-based; design: dose 10 mg/kg, route oral
# [13] = Cmax in diet-induced obese C57BL/6J mouse at 10 mg/kg, po; format: ADME, organism-based; design: dose 10 mg/kg, route oral; settings: in vivo
# [14] = Tmax in diet-induced obese C57BL/6J mouse at 10 mg/kg, po; format: ADME, organism-based; design: dose 10 mg/kg, route oral; settings: in vivo
# [15] = AUC (0 to infinity) in diet-induced obese C57BL/6J mouse at 10 mg/kg, po; format: ADME, organism-based; design: time infinity, dose 10 mg/kg, route oral; settings: plasma
# [16] = Cmax in diet-induced obese C57BL/6J mouse at 30 mg/kg, po; format: ADME, organism-based; design: dose 30 mg/kg, route oral; settings: in vivo
# [17] = Tmax in diet-induced obese C57BL/6J mouse at 30 mg/kg, po; format: ADME, organism-based; design: dose 30 mg/kg, route oral; settings: in vivo
# [18] = AUC (0 to infinity) in diet-induced obese C57BL/6J mouse at 30 mg/kg, po; format: ADME, organism-based; design: time infinity, dose 30 mg/kg, route oral; settings: plasma
# [19] = Plasma concentration in diet-induced obese C57BL/6J mouse at 30 mg/kg, po after 24 hrs; format: ADME, organism-based; design: dose 30 mg/kg, route oral
# Brain [20] = assay: Drug level in diet-induced obese C57BL/6J mouse brain at 30 mg/kg, po after 24 hrs; format: ADME, organism-based; design: dose 30 mg/kg, route oral; settings: in vivo
# [21] = Ratio of drug level in brain to plasma of diet-induced obese C57BL/6J mouse at 30 mg/kg, po after 24 hrs; format: ADME, organism-based; design: dose 30 mg/kg, route oral
structure (smiles),measurement,setting,value
O=C(C(c1ccc(F)c(F)c1)n1cccn1)N(CCF)CCCN1CCC2(CC1)OCc1cc(F)ncc12 (centres undefined),remaining at 0.5 h,[1],12%
same,remaining at 0.5 h,[2],31%
same,remaining at 0.5 h,[3],22%
CCO/N=C(/c1ccc(F)c(F)c1)c1ccc(CN2CCC3(CC2)OCc2cc(F)ncc23)cn1,remaining at 0.5 h,[1],0%
same,remaining at 0.5 h,[2],2%
same,remaining at 0.5 h,[3],11%
CCO/N=C(/c1ccc(F)c(F)c1)c1ccc(CN2CCC3(CC2)OCc2cn(C)c(=O)cc23)cn1,remaining at 0.5 h,[1],68%
same,remaining at 0.5 h,[2],71%
same,remaining at 0.5 h,[3],57%
same,clearance,[4],13 mL/min/kg
same,Vd,[5],1.6 L/kg
same,half-life,[6],1.4 h
same,Cmax,[7],1.85 µM
same,AUC,Rattus norvegicus,6.57 µM·h
same,bioavailability,[8],87%
same,concentration at 2 h,[9],4.5 µM
same,Drug uptake,Brain [10],2.2 nmol/g
same,concentration at 2 h,[11],0.13 µM
same,Kp at 2 h,[12],0.49
same,Cmax,[13],4.27 µM
same,Tmax,[14],2 h
same,AUC(0-inf),[15],15.4 µM·h
same,Cmax,[16],15.6 µM
same,Tmax,[17],2 h
same,AUC(0-inf),[18],90.7 µM·h
same,concentration at 24 h,[19],0.119 µM
same,Drug uptake,Brain [20],0.052 nmol/g
same,Kp at 24 h,[21],0.43
CCO/N=C(/c1ccc(F)c(F)c1)c1ccc(CN2CCC3(CC2)OCc2cc(=O)n(C)cc23)cn1,remaining at 0.5 h,[1],77%
same,remaining at 0.5 h,[2],84%
same,remaining at 0.5 h,[3],74%
Fc1cc2c(cn1)C1(CCN(Cc3ccc(Oc4ccc(F)c(F)c4)cc3)CC1)OC2,remaining at 0.5 h,[1],17%
same,remaining at 0.5 h,[2],4%
same,remaining at 0.5 h,[3],3%
